Reference: patent US20130109718A1, “1-CYCLOALKYL- OR 1-HETEROCYCLYL-HYDROXYIMINO-3-PHENYL-PROPANES” (Hoffmann-La Roche Inc., priority 2011, published 2013)

Target: T1, human GPBAR1 receptor (Homo sapiens, UniProt Q8TDU6)
T1 construct: expressed in transfected cells
T1 sequence (Q8TDU6 1-330): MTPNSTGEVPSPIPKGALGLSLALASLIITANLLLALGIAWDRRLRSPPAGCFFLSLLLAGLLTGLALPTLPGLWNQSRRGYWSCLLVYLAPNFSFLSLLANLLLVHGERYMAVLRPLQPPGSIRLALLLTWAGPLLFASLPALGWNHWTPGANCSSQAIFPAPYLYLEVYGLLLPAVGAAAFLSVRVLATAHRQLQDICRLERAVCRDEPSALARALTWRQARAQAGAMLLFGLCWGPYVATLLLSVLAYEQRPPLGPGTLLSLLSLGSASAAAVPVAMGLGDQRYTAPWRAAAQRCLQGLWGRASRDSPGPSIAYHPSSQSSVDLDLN
Assay: functional cAMP assay in CHO-dhfr(minus) cells expressing human GPBAR1 receptors
Type: cell-based
Conditions: CHO-dhfr(minus) cells expressing human GPBAR1, 30 min at 30° C.
From the text: The cDNA of the human GPBAR1 receptor (Genbank: NM_170699 with the exception of a silent C:G mutation at position 339 from the start codon) was amplified by polymerase chain reaction (PCR) from human cDNA and inserted into pCineo (Promega) by standard methods (Current Protocols in Molecular Biology, Wiley Press, ed. Ausubel et al.). The final clone was verified by DNA sequence analysis. The plasmid was transfected into CHO cells deficient in dihydrofolate reductase activity (CHO-dhfr-) using Lipofectamine plus (Invitrogen). Clones were isolated in limited dilution conditions and identified by activities in the cAMP assay using lithocholic acid as agonist. A clonal cell line displaying the greatest activity in cAMP increases was selected and identified as giving consistently good responses for up to at least 20 passages.
CHO-dhfr(minus) cells expressing human GPBAR1 receptors are seeded 17-24 hours prior to the experiment 50.000 cells per well in a black 96 well plate with flat clear bottom (Corning Costar #3904) in DMEM (Invitrogen No. 31331), 1×HT supplement, with 10% fetal calf serum and incubated at 5% CO2 and 37° C. in a humidified incubator. The growth medium was exchanged with Krebs Ringer Bicarbonate buffer with 1 mM IBMX and incubated at 30° C. for 30 min. Compounds were added to a final assay volume of 100 μl and incubated for 30 min at 30° C. The assay was stopped by the addition of 50 μl lysis reagent (Tris, NaCl, 1.5% Triton X100, 2.5% NP40, 10% NaN3) and 50 μl detection solutions (20 μM mAb Alexa700-cAMP 1:1, and 48 μM Ruthenium-2-AHA-cAMP) and shaken for 2 h at room temperature. The time-resolved energy transfer is measured by a TRF reader (Evotec Technologies GmbH, Hamburg Germany), equipped with a ND:YAG laser as excitation source. The plate is measured twice with the excitation at 355 nm and at the emission with a delay of 100 ns and a gate of 100 ns, total exposure time 10 s at 730 (bandwidth 30 nm) or 645 nm (bandwidth 75 nm), respectively. The measured signal at 730 nm has to be corrected for the ruthenium background, the direct excitation of Alexa and the buffer control. The FRET signal is calculated as follows: FRET=T730-Alexa730-P(T645-B645) with P=Ru730-B730/Ru645-B645, where T730 is the test well measured at 730 nM, T645 is the test well measured at 645 nm, B730 and B645 are the buffer controls at 730 nm and 645 nm, respectively. cAMP content is determined from the function of a standard curve spanning from 10 μM to 0.13 nM cAMP.
EC50 values were determined using Activity Base analysis (ID Business Solution, Limited). The EC50 values for a wide range of bile acids generated from this assay were in agreement with the values published in the scientific literature. Specificity for GPBAR1 was tested in non-transfected CHO cells in the same assay as above.

EC50 | Structure (SMILES)
118 nM | Cc1ccccc1[C@H](C/C(=N\O)C1CCC(=O)N(C)C1)c1ccc(S(C)(=O)=O)cc1 (mixture of isomers) [Example 1, 5-((R,E)-1-(Hydroxyimino)-3-(4-(methylsulfonyl)phenyl)-3-o-tolylpropyl)-1-methylpiperidin-2-one]
145 nM | Cc1ccccc1[C@H](C/C(=N\O)C1CCC(=O)N(C)C1)c1ccc(S(C)(=O)=O)cc1 (single isomer, unassigned) [Example 3]
29 nM | Cc1ccccc1[C@H](C/C(=N\O)C1CCC(=O)N(C)C1)c1ccc(S(C)(=O)=O)cc1 (single isomer, unassigned) [Example 4]
8670 nM | Cc1ccccc1[C@H](C/C(=N/O)C1CCC(=O)N(C)C1)c1ccc(S(C)(=O)=O)cc1 (stereo partly drawn) [Example 2, 5-((R,Z)-1-(hydroxyimino)-3-(4-(methylsulfonyl)phenyl)-3-o-tolylpropyl)-1-methylpiperidin-2-one]
42 nM | Cc1ccccc1[C@H](C/C(=N\O)C1CCC(=O)N(C)C1)c1ccc(N2CCC(C(=O)O)CC2)cc1 (stereo partly drawn) [Example 5, Sodium 1-(4-((1R,E)-3-(hydroxyimino)-3-(1-methyl-6-oxopiperidin-3-yl)-1-o-tolylpropyl)phenyl)piperidine-4-carboxylate]
51 nM | Cc1ccccc1[C@H](C/C(=N\O)C1CCC(=O)N(C)C1)c1ccccc1 (stereo partly drawn) [Example 6, 5-((R,E)-1-(Hydroxyimino)-3-phenyl-3-o-tolylpropyl)-1-methylpiperidin-2-one]
558 nM | Cc1ccccc1[C@H](C/C(=N\O)C1CCC(=O)N(C)C1)c1ccc(-c2ccc(C(=O)O)cc2)cc1 (stereo partly drawn) [Example 7, 4′-((1R,E)-3-(Hydroxyimino)-3-(1-methyl-6-oxopiperidin-3-yl)-1-o-tolylpropyl)biphenyl-4-carboxylic acid]
8270 nM | CC(=O)N1CCC(/C(CC(c2ccc(Br)cc2)c2ccccc2C)=N/O)CC1 (stereo not drawn) [Example 8, (E)-1-(4-(3-(4-Bromophenyl)-1-(hydroxyimino)-3-o-tolylpropyl)piperidin-1-yl)ethanone]
118 nM | Cc1ccccc1C(C/C(=N\O)C1CCOCC1)c1ccc(Br)cc1 (stereo not drawn) [Example 9, (E)-3-(4-Bromophenyl)-1-(tetrahydro-2H-pyran-4-yl)-3-o-tolylpropan-1-one oxime]
799 nM | CS(=O)(=O)c1ccc(C(C/C(=N\O)C2CCOCC2)c2ccccc2)cc1 (stereo not drawn) [Example 10, (E)-3-(4-(Methylsulfonyl)phenyl)-3-phenyl-1-(tetrahydro-2H-pyran-4-yl)propan-1-one oxime]
9950 nM | Cc1ccccc1C(C/C(=N\O)C1CCSCC1)c1ccc(Br)cc1 (stereo not drawn) [Example 11, (E)-3-(4-Bromophenyl)-1-(tetrahydro-2H-thiopyran-4-yl)-3-o-tolylpropan-1-one oxime]
9730 nM | Cc1ccccc1C(C/C(=N\O)C1CCS(=O)(=O)CC1)c1ccc(Br)cc1 (stereo not drawn) [Example 12, 3-(4-Bromo-phenyl)-1-(1,1-dioxo-hexahydro-thiopyran-4-yl)-3-o-tolyl-propan-1-one oxime]
2000 nM | Cc1ccccc1C(C/C(=N\O)[C@H]1CC[C@H](O)CC1)c1ccc(Br)cc1 (stereo partly drawn) [Example 13, (E)-3-(4-Bromophenyl)-1-(trans-4-hydroxycyclohexyl)-3-o-tolylpropan-1-one oxime]
601 nM | Cc1ccccc1C(C/C(=N\O)C1CCC(=O)CC1)c1ccc(Br)cc1 (stereo not drawn) [Example 14, (E)-4-(3-(4-bromophenyl)-1-(hydroxyimino)-3-o-tolylpropyl)cyclohexanone]
680 nM | Cc1ccccc1C(C/C(=N\O)C1CCC(O)CC1)c1ccc(S(C)(=O)=O)cc1 (stereo not drawn) [Example 15, (E)-1-(4-Hydroxycyclohexyl)-3-(4-(methylsulfonyl)phenyl)-3-o-tolylpropan-1-one oxime]
7720 nM | Cc1ccccc1C(C/C(=N/O)C1CCC(O)CC1)c1ccc(S(C)(=O)=O)cc1 (stereo not drawn) [Example 16, (Z)-1-(4-hydroxycyclohexyl)-3-(4-(methylsulfonyl)phenyl)-3-o-tolylpropan-1-one oxime]
9810 nM | Cc1ccccc1C(C/C(=N\O)[C@H]1CC[C@](C)(O)CC1)c1ccc(S(C)(=O)=O)cc1 (stereo partly drawn) [Example 17, (E)-1-((1r,4r)-4-Hydroxy-4-methylcyclohexyl)-3-(4-(methylsulfonyl)phenyl)-3-o-tolylpropan-1-one oxime]
3850 nM | Cc1ccccc1C(C/C(=N\O)C1CC(O)C1)c1ccc(Br)cc1 (stereo not drawn) [Example 18, (E)-3-(4-Bromophenyl)-1-(3-hydroxycyclobutyl)-3-o-tolylpropan-1-one oxime]
